Laboratory results: patent publication US7238512B2, “Method to produce para-hydroxybenzoic acid in the stem tissue of green plants by using a tissue-specific promoter” (E. I. du Pont de Nemours and Company, priority 2003, dated 2007)
Where two headings read alike, the source gives them in different places.

Columns and labels:
Arabidopsis plants [1] = experiment: pHBA analysis in tissue of transgenic plants by acid hydrolysis and HPLC; format: in vivo, Arabidopsis thaliana; conditions: for Whole stalk pHBA highest: best primary transformant; for Whole stalk pHBA highest / Basal stalk pHBA average / Basal stalk pHBA highest: Table 5; for Basal stalk pHBA average / Basal stalk pHBA highest: primary transformants, eight weeks; for Basal stalk pHBA average: 2 cm stem segment at base; for pHBA levels relative to the best 35S HCHL line: whole stalk tissue, best lines
Description: If not stated otherwise, plants were grown under standard conditions ([…], 12 h darkness) in a greenhouse. Plants expressing HCHL genes where grown at 100 μE m^−2 sec^−1, 14 h light (23° C.), 12 h (18° C.) darkness and 70% relative humidity in growth chambers (Conviron, USA). Sterile plant cultures were maintained under identical conditions in a plant growth chamber (Percival, USA).
Arabidopsis thaliana plants were transformed using Agrobacterium strains (C58, C1 GV3101 MP90) (Koncz, C. and Schell, J., Mol. Gen. Genet., 204:383-396 (1986)) and published protocols of the in-planta transformation method (Desfeux et al., Plant Physiology, 123(3):895-904 (2000)). Selection for transformants carrying the NPTII gene was conducted on sterile growth media in the presence of 50 mg/L kanamycin. Selection for transformants carrying the BAR gene was conducted on sterile growth media in the presence of 7.5 mg/L glufosinate or by germinating seed in soil followed by spray-application of an aqueous solution (6 mg/L) of glufosinate herbicide (Sigma, USA) 7 days after germination. Plants destined for plant transformation experiments were grown under permanent light at 23° C. to accelerate flower development.
pHBA was quantitated in plant tissue by HPLC analysis. For determination of pHBA conjugates, fresh oven-dried or lyophilized tissue was extracted with 50% MeOH. To quantitate free pHBA plant samples (fresh, dried, lyophilized plant tissue or dried-down methanol extracts of plant tissue) were subjected to acid hydrolysis. Dried or lyophilized tissue was ground to a fine powder using a Cyclotec 1093 tissue mill (Foss Tecator, Sweden) prior to hydrolysis. Tissue (5-25 mg of dried or lyophilized material, 10-100 mg of fresh tissue) was supplemented with 500-750 μL of 1M HCl and incubated at 100° C. for 1-3 h. The hydrolysate was adjusted to alkaline pH by addition of one volume of 1.1 M NaOH.

[2] = system: Pseudomonas putida (DSM 12585) HCHL (4-hydroxycinnamoyl-CoA hydratase/lyase), variant with C-terminal hexa-histidine tag, SEQ ID NO:10; experiment: Kinetic properties of the purified his-tagged HCHL enzyme from Pseudomonas putida (DSM 12585); HPLC quantitation of pHBALD / vanillin; conditions: for Km / Vmax: his-tagged enzyme, 5.5 min; for Km: 100 mM Tris/HCl pH 8.5, 30° C., pHCACoA 343 to 2.7 μM, feruloylCoA 293 to 2.3 μM; for Vmax: pH 8.5, 30° C.
Description: A second expression construct was generated that expresses a variant of the HCHL protein that carries a C-terminal hexa-histidine tag.
LB medium (200 mL containing 50 mg/L kanamycin) was inoculated with a single colony of E. coli BL21 DE3 cells harboring the pET29a HCHL 6×His Tag expression construct. Cells were grown to an ODλ=600 nm of 0.6 and protein production was induced by addition of 0.2 mM IPTG. Cells were grown at room temperature for 24 h. Cells were harvested by centrifugation (5000×g for 10 min) and resuspended in 2.5 mL of 100 mM Tris/HCl (pH 8.5), 20 mM DTT, and 300 mM NaCl. The cell suspension was passed twice through a French press and cleared by centrifugation (30000×g, 20 min, at 4° C.). The cell-free extract was buffer-exchanged using PD10 columns into 20 mM NaPO4 (pH 7.5), 500 mM NaCl, and 10 mM imidazole and loaded on a 5 mL HiTrap chelating chromatography cartridge (Amersham Pharmacia, USA). The column was washed with 20 mL of loading buffer and 20 mL of loading buffer containing 70 mM imidazole. The his-tagged HCHL protein was eluted from the column with a linear gradient from 70-1000 mM imidazole in loading buffer.

[3] = system: Pseudomonas fluorescens AN103 HCHL (4-hydroxycinnamoyl-CoA hydratase/lyase); conditions: published, Mitra et al., Arch. Biochem. Biophys., 365(1):6-10 (1999); cited from earlier work
[4] = HCHL enzyme activity in leaf and stalk tissue of transgenic plants; conditions: leaf, T2 lines, eight weeks, Table 6
Description: For this experiment the basal stem segment was used.
The primary transformants were self crossed and T2 seed material was germinated on selective media containing glufosinate, transferred to soil, and grown for eight weeks. Leaf and stalk tissue was harvested and subjected to pHBA analysis and assayed for HCHL activity (Table 6).
T2 plants of the Caulobacter and Pseudomonas fluorescens HCHL transgenics were germinated on selective media and grown in soil for 6 weeks to obtain sufficient stalk tissue for analysis of HCHL enzyme activity.

Arabidopsis plants [5] = conditions: in vivo
[6] = system: Pseudomonas putida (DSM 12585) HCHL (4-hydroxycinnamoyl-CoA hydratase/lyase), native, SEQ ID NO:6
Description: LB medium (500 mL containing 50 mg/L) kanamycin was inoculated with a single colony of E. coli BL21 DE3 cells harboring the pET HCHL expression construct. Cells were grown to an ODλ=600 nm of 0.6 and protein production was induced by the adding of 0.2 mM IPTG. Cells were grown at room temperature for 24 h. Cells were harvested by centrifugation (5000×g for 10 min) and resuspended in 15 mL of 100 mM Tris/HCl (pH 8.5), 20 mM DTT, and 300 mM NaCl. […] Two 2.5-mL aliquots of the cell-free extract were buffer-exchanged using PD10 columns into 50 mM Tris/HCl (pH 7.6), 10 mM Na2SO3, and 1 mM EDTA. Buffer-exchanged extract (7 mL) was loaded onto a Q-sepharose column (15 mL gel bed volume). […] A fraction with HCHL activity was purified further by chromatography on hydroxyapatide (Biorad Econo-Pac cartridge CHT-II, 1 mL gel bed volume (Biorad, Calif., USA)). Approximately 2.5 mL was buffer-exchanged into (10 mM NaPO4, (pH 6.8) and 10 μM CaCl2).

[7] = target: T1, Caulobacter crescentus HCHL (4-hydroxycinnamoyl-CoA hydratase/lyase), SEQ ID NO:61 (Caulobacter vibrioides, UniProt Q9A5P6); conditions: Table 12; 0.8 ng enzyme, pHCACoA 0.9 to 440 μM
T1 sequence (Q9A5P6 1-275): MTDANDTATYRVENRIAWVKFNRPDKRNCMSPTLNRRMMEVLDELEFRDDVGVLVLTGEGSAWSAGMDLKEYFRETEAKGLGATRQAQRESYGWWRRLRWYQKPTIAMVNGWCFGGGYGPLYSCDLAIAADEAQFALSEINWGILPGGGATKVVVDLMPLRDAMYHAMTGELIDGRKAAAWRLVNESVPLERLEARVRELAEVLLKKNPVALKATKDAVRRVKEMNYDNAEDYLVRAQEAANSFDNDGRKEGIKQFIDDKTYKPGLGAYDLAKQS

[8] = HCHL enzyme assay, kinetic properties of purified recombinant HCHL with pHCACoA; format: biochemical; conditions: compared to the Pseudomonas fluorescens AN103 enzyme
Text: The reaction mixture was cleared by centrifugation.

[9] = substrate: CC(C)(COP(=O)(O)OP(=O)(O)OC[C@H]1O[C@@H](n2cnc3c(N)ncnc32)[C@H](O)[C@@H]1OP(=O)(O)O)[C@@H](O)C(=O)NCCC(=O)NCCSC(=O)/C=C/c1ccc(O)cc1; experiment: purified protein, by the assay type; conditions: other: Table 12, 0.8 ng enzyme, pHCACoA 0.9 to 440 μM, pH 8.5, 30° C.
[10] = native enzyme, Example 1, pH 8.5, 30° C.

Molecule: C4H HCHL: Arabidopsis C4H promoter fused to P. putida HCHL coding sequence, SEQ ID NO:27
- Whole stalk pHBA highest (Arabidopsis plants [1]): 23.42 (line 35) mg/g DW
- Basal stalk pHBA average (Arabidopsis plants [1]): 0.89 mg/g FW
- Basal stalk pHBA highest (Arabidopsis plants [1]): 5.54 mg/g FW
- pHBA levels relative to the best 35S HCHL line (Arabidopsis plants [1]): 106%

Molecule: C3′H HCHL: Arabidopsis C3′H promoter fused to P. putida HCHL coding sequence, SEQ ID NO:29
- Whole stalk pHBA highest (Arabidopsis plants [1]): 9.52 (line 227) mg/g DW
- Basal stalk pHBA average (Arabidopsis plants [1]): 0.41 mg/g FW
- Basal stalk pHBA highest (Arabidopsis plants [1]): 1.65 mg/g FW

Molecule: 4CL1 HCHL: Arabidopsis 4CL1 promoter fused to P. putida HCHL coding sequence, SEQ ID NO:28
- Whole stalk pHBA highest (Arabidopsis plants [1]): 12.93 (line 183) mg/g DW
- Basal stalk pHBA average (Arabidopsis plants [1]): 0.55 mg/g FW
- Basal stalk pHBA highest (Arabidopsis plants [1]): 3.87 mg/g FW
- pHBA levels relative to the best 35S HCHL line (Arabidopsis plants [1]): 60%

Molecule: COc1cc(/C=C/C(=O)SCCNC(=O)CCNC(=O)[C@H](O)C(C)(C)COP(=O)(O)OP(=O)(O)OC[C@H]2O[C@@H](n3cnc4c(N)ncnc43)[C@H](O)[C@@H]2OP(=O)(O)O)ccc1O [feruloylCoA]
- Km [2]: 2.39 µM
- Vmax [2]: 37.3 nkat/mg
- Km [3]: 2.4 µM
- Vmax [3]: 36.5 nkat/mg

Molecule: AtCesA7 (IRX3) HCHL: Arabidopsis AtCesA7 (IRX3) promoter fused to P. putida HCHL coding sequence, SEQ ID NO:30
- HCHL activity [4]: no detectable HCHL activity
- plant phenotype (Arabidopsis plants [5]): phenotypically indistinguishable from wild type plants
- Whole stalk pHBA highest (Arabidopsis plants [1]): 12.96 (line 366) mg/g DW
- Basal stalk pHBA average (Arabidopsis plants [1]): 1.21 mg/g FW
- Basal stalk pHBA highest (Arabidopsis plants [1]): 3.91 mg/g FW
- pHBA levels relative to the best 35S HCHL line (Arabidopsis plants [1]): 60%

Molecule: CC(C)(COP(=O)(O)OP(=O)(O)OC[C@H]1O[C@@H](n2cnc3c(N)ncnc32)[C@H](O)[C@@H]1OP(=O)(O)O)[C@@H](O)C(=O)NCCC(=O)NCCSC(=O)/C=C/c1ccc(O)cc1 [pHCACoA, para-coumaroyl-CoA]
- Vmax ([6]; Table 12, 1.4 ng enzyme, pHCACoA 0.9 to 440 μM): 43 nkat mg^−1
- Km ([6]; Table 12, 1.4 ng enzyme, pHCACoA 0.9 to 440 μM, pH 8.5, 30° C.): 2.4 µM
- catalytic center activity (per enzyme dimer) ([6]; from Vmax with pHCACoA, using 30,865.1 Da per monomer): 2.65 s⁻¹
- Km [6, 10]: 2.4 µM
- Vmax [6, 10]: 43 nkat/mg
- catalytic center activity (per enzyme dimer) ([2]; from Vmax with pHCACoA, using 32,348.8 Da per monomer): 3.4 s⁻¹
- Km [2]: 2.53 µM
- Vmax [2]: 53.8 nkat/mg
- Vmax [7]: 240 nkat mg^−1
- Km [3]: 5.3 µM
- Vmax [3]: 73 nkat/mg

B1: Caulobacter crescentus HCHL (4-hydroxycinnamoyl-CoA hydratase/lyase), SEQ ID NO:61 (Caulobacter vibrioides CB15) (protein)
chain: MTDANDTATYRVENRIAWVKFNRPDKRNCMSPTLNRRMMEVLDELEFRDDVGVLVLTGEGSAWSAGMDLKEYFRETEAKGLGATRQAQRESYGWWRRLRWYQKPTIAMVNGWCFGGGYGPLYSCDLAIAADEAQFALSEINWGILPGGGATKVVVDLMPLRDAMYHAMTGELIDGRKAAAWRLVNESVPLERLEARVRELAEVLLKKNPVALKATKDAVRRVKEMNYDNAEDYLVRAQEAANSFDNDGRKEGIKQFIDDKTYKPGLGAYDLAKQS
- improvement of catalytic efficiency (Kcat/Km) [8]: 50%
- Km [9]: 4 µM
